Results on ten compounds are retold here after article PMC5007513, “Discovery of new diketopiperazines inhibiting Burkholderia cenocepacia quorum sensing in vitro and in vivo” (Scientific Reports, 2016).

This assay has as its target T1, B. cenocepacia CepI (Burkholderia cenocepacia, UniProt B4EMD2).
T1 sequence (B4EMD2 1-202): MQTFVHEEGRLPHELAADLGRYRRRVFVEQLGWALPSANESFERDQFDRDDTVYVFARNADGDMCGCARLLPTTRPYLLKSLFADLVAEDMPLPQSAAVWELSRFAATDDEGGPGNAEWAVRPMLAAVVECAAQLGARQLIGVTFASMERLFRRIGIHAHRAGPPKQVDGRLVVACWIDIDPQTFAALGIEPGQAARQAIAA
Put plainly: CepI enzymatic assay (holo-ACP formation with DCPIP). The format is biochemical, Burkholderia cenocepacia J2315. The protocol: Determination of the CepI enzyme activity was performed spectrophotometrically by measuring holo-ACP formation with dichlorophenylindophenol (DCPIP; ε = 19100 M^−1 cm^−1) at 37 °C according to Christensen et al.[19]. Reaction mixtures typically contained 50 mM 4-(2-hydroxyethyl)-1-piperazineethanesulfonic acid pH 7.5 (HEPES), 0.005% Nonidet P-40, 0.13 mM DCPIP, 70 μM C8-ACP, 40 μM S-adenosyl methionine (SAM), 4 μM CepI and the reaction was started by addition of SAM after pre-incubation for 10 min.
CepI inhibition was initially screened for all compounds at 100 μM (dissolved in DMSO). […] To determine IC50, the enzyme activities were measured in presence of different concentrations of compounds and values determined with equation (1): […]
where A[I] is the enzyme activity at inhibitor concentration [I] and A[0] is the enzyme activity without inhibitor.
Ki determination was determined using the equation (2) for noncompetitive inhibition[49]: […]

Where [1] appears, read: Supplementary Table S1, initial screen at 100 μM.
Where [2] appears, read: recombinant CepI, read-out: CepI IC50.

Read-outs that look alike come from different tables or passages of the source.

Compound `O=C1CNC(=O)C(c2cc(OCc3ccccc3)ccc2OCc2ccccc2)N1` (stereo not drawn) [6a] returned an IC50 of 30 ± 6 µM.

Take `O=C1N[C@H](Cc2ccccc2)C(=O)NC1c1cc(OCc2ccccc2)ccc1OCc1ccccc1` (stereo partly drawn) [6b]: under setting [1], the “CepI IC50” value is listed as “not inhibitory”.

`CC(C)[C@H]1NC(=O)C(c2cc(OCc3ccccc3)ccc2OCc2ccccc2)NC1=O` (stereo partly drawn) [6c]: the “CepI IC50” value under setting [1] is recorded as “not inhibitory”.

Turning to `O=C1CNC(=O)C(c2cc(O)ccc2O)N1` (stereo not drawn) [7a], under setting [1], the “CepI IC50” value is reported as “not inhibitory”. Still for that read-out and setting: for `O=C1N[C@H](Cc2ccccc2)C(=O)NC1c1cc(O)ccc1O` (stereo partly drawn) [7b] the value was “not inhibitory”; for `CC(C)[C@H]1NC(=O)C(c2cc(O)ccc2O)NC1=O` (stereo partly drawn) [7c], “not inhibitory”. Regarding `O=C1C=CC(=O)C(C2NC(=O)CNC2=O)=C1` (stereo not drawn) [8a], the IC50 (Supplementary Table S1, initial screen at 100 μM, read-out: CepI IC50) came out at 10 ± 1 µM. On to `O=C1C=CC(=O)C(C2NC(=O)C(Cc3ccccc3)NC2=O)=C1` (stereo not drawn) [8b], for which 5 ± 0.8 µM corresponded to half-maximal inhibition (IC50) and the Ki was 17 ± 0.6 µM. In addition, for the setting “towards both C8-ACP and SAM substrates”, the mechanism of inhibition entry is listed as “non-competitive inhibitor”. In the case of `CC(C)C1NC(=O)C(C2=CC(=O)C=CC2=O)NC1=O` (stereo not drawn) [8c], the IC50 under setting [2] was 5 to 30 µM.

For the compound `CN1CCN(C(c2ccccn2)c2c(-c3ccccc3)n(O)c3ccccc23)CC1` (stereo not drawn) [compound 1 from Christensen et al., reference compound], the IC50 under setting [2] amounted to 7.2 ± 0.2 µM.
